ChEMBL document CHEMBL5052818, “Aminopyrimidine derivatives as ctps1 inhibitors” (2019)

Test: Inhibition of C-terminal FLAG-His-tagged full length human CTPS1 measured after 60 mins by ADP-Glo assay

`O=C(Cc1nc(NS(=O)(=O)C2CC2)ncc1F)Nc1ccc(-c2cccnc2)cc1` and `O=C(Cc1ccnc(NS(=O)(=O)C2CC2)n1)Nc1ccc(-c2cccnc2)cc1` cannot be ordered by IC50: greater than 1000 nM for the first, greater than 100 nM for the second.

`CC(C)Oc1cncc(-c2ccc(NC(=O)Cc3ccnc(NS(=O)(=O)C4CC4)n3)cc2)n1` and `COc1cncc(-c2ccc(NC(=O)Cc3ccnc(NS(=O)(=O)C4CC4)n3)cc2)n1` cannot be ordered by IC50: no more than 100 nM for the first, no more than 100 nM for the second.

`CC(C)(C(=O)Nc1ccc(-c2cccc(Cl)c2)cc1)c1ccnc(NS(=O)(=O)C2CC2)n1` and `CC(C)(C(=O)Nc1ccc(-c2cccc(C#N)c2)cc1)c1ccnc(NS(=O)(=O)C2CC2)n1` cannot be ordered by IC50: greater than 1000 nM for the first, greater than 1000 nM for the second.

`CC(C)(C(=O)Nc1ccc(-c2cncc(C(F)(F)F)n2)cc1F)c1ccnc(NS(=O)(=O)C2CC2)n1` and `Cc1cc(-c2cncc(C(F)(F)F)n2)ccc1NC(=O)C(C)(C)c1ccnc(NS(=O)(=O)C2CC2)n1` cannot be ordered by IC50: no more than 100 nM for the first, greater than 100 nM for the second.

`CCOc1cncc(-c2ccc(NC(=O)C(C)(C)c3ccnc(NS(=O)(=O)C4CC4)n3)c(OC)c2)n1` and `CCOc1cncc(-c2ccc(NC(=O)C(C)(C)c3ccnc(NS(=O)(=O)C4CC4)n3)c(Cl)c2)n1` cannot be ordered by IC50: no more than 100 nM for the first, no more than 100 nM for the second.

`CC(C)(C(=O)Nc1ccc(-c2cncc(C#N)c2)cc1)c1ccnc(NS(=O)(=O)C2CC2)n1` and `CC(C)(C(=O)Nc1ccc(-c2cncc(F)c2)cc1)c1ccnc(NS(=O)(=O)C2CC2)n1` cannot be ordered by IC50: greater than 100 nM for the first, greater than 100 nM for the second.

`CC(C)Oc1cncc(-c2ccc(NC(=O)Cc3ccnc(NS(=O)(=O)C4CC4)n3)c(F)c2)n1` and `CC(C)Oc1cncc(-c2ccc(NC(=O)C(C)(C)c3ccnc(NS(=O)(=O)C4CC4)n3)c(F)c2)n1` cannot be ordered by IC50: no more than 100 nM for the first, no more than 100 nM for the second.

`CC(C)(C(=O)Nc1ccc(-c2cccnc2)cc1)c1ccnc(NS(=O)(=O)C2CC2)n1` and `CC(C)(C(=O)Nc1ccc(-c2cncnc2)cc1)c1ccnc(NS(=O)(=O)C2CC2)n1` cannot be ordered by IC50: greater than 1000 nM for the first, greater than 1000 nM for the second.

`CCC(C(=O)Nc1ccc(-c2cncc(C(F)(F)F)c2)cc1)c1ccnc(NS(=O)(=O)C2CC2)n1` (configuration not stated) and `CCC(C(=O)Nc1ccc(-c2cncc(Cl)c2)cc1)c1ccnc(NS(=O)(=O)C2CC2)n1` (configuration not stated) cannot be ordered by IC50: greater than 100 nM for the first, greater than 100 nM for the second.

`CCOc1cncc(-c2ccc(NC(=O)C(C)(C)c3ccnc(NS(=O)(=O)C4CCC4)n3)nc2)n1` and `CCOc1cncc(-c2ccc(NC(=O)C(C)(C)c3ccnc(NS(=O)(=O)C4CC4)n3)nc2)n1` cannot be ordered by IC50: greater than 100 nM for the first, no more than 100 nM for the second.

`CCOc1cncc(-c2cnc(NC(=O)C(C)(C)c3ccnc(NS(=O)(=O)C4CC4)n3)c(F)c2)n1` and `CCOc1cncc(-c2ccc(NC(=O)C(C)(C)c3ccnc(NS(=O)(=O)C4CC4)n3)c(F)c2)n1` cannot be ordered by IC50: no more than 100 nM for the first, no more than 100 nM for the second.

`CCOc1cncc(-c2cc(C)c(NC(=O)C(C)(C)c3ccnc(NS(=O)(=O)C4CC4)n3)cc2F)n1` and `CCOc1cncc(-c2cc(C)c(NC(=O)C(C)(C)c3ccnc(NS(=O)(=O)C4CC4)n3)cc2C)n1` cannot be ordered by IC50: greater than 100 nM for the first, greater than 100 nM for the second.

`O=C(Cc1ccnc(NS(=O)(=O)C2CC2)n1)Nc1ccc(-c2cncc(C(F)(F)F)n2)cc1` and `O=C(Cc1ccnc(NS(=O)(=O)C2CC2)n1)Nc1ccc(-c2cncc(OCC(F)(F)F)n2)cc1` cannot be ordered by IC50: no more than 100 nM for the first, no more than 100 nM for the second.

`CCOc1cncc(-c2ccc(NC(=O)C(CC)(CC)c3ccnc(NS(=O)(=O)C4CC4)n3)cc2)n1` and `CCOc1cncc(-c2ccc(NC(=O)C(C)(C)c3ccnc(NS(=O)(=O)C4CCC4)n3)cc2)n1` cannot be ordered by IC50: no more than 100 nM for the first, greater than 100 nM for the second.

`CC(C)(C(=O)Nc1ccc(-c2cccc(C(F)(F)F)c2)cc1)c1ccnc(NS(=O)(=O)C2CC2)n1` and `CC(C)(C(=O)Nc1ccc(-c2cncc(C(F)(F)F)c2)cc1)c1ccnc(NS(=O)(=O)C2CC2)n1` cannot be ordered by IC50: greater than 1000 nM for the first, greater than 100 nM for the second.

`CC(C)Oc1cncc(-c2ccc(NC(=O)C(C)(C)c3ccnc(NS(=O)(=O)C4CC4)n3)c(F)c2)c1` and `CC(C)Oc1cncc(-c2ccc(NC(=O)C(C)(C)c3ccnc(NS(=O)(=O)C4CC4)n3)cc2)c1` cannot be ordered by IC50: greater than 100 nM for the first, greater than 100 nM for the second.

`O=C(Cc1ccnc(NS(=O)(=O)C2CC2)n1)Nc1ccc(-c2cncc(C(F)(F)F)n2)cc1F` and `O=C(Cc1ccnc(NS(=O)(=O)C2CC2)n1)Nc1ccc(-c2cncc(C(F)(F)F)c2)cc1` cannot be ordered by IC50: no more than 100 nM for the first, greater than 100 nM for the second.

`CC(C)Oc1cncc(-c2ccc(NC(=O)C(C)(C)c3ccnc(NS(=O)(=O)C4CCC4)n3)c(F)c2)n1` and `CCOc1cncc(-c2ccc(NC(=O)C(C)(C)c3ccnc(NS(=O)(=O)C4CCC4)n3)c(C)c2)n1` cannot be ordered by IC50: greater than 100 nM for the first, greater than 100 nM for the second.

`CC(C)(C(=O)Nc1ccc(-c2cccnc2)cn1)c1ccnc(NS(=O)(=O)C2CC2)n1` and `CC(C)(C(=O)Nc1ccc(-c2cccnc2)cc1F)c1ccnc(NS(=O)(=O)C2CC2)n1` cannot be ordered by IC50: greater than 1000 nM for the first, greater than 1000 nM for the second.

`COc1cncc(-c2ccc(NC(=O)C(C)(C)c3ccnc(NS(=O)(=O)C4CCC4)n3)cc2)n1` and `COc1cncc(-c2ccc(NC(=O)C(C)(C)c3ccnc(NS(=O)(=O)C4CC4)n3)cc2)n1` cannot be ordered by IC50: greater than 100 nM for the first, no more than 100 nM for the second.

`CCOc1cncc(-c2ccc(NC(=O)C(C)(C)c3ccnc(NS(=O)(=O)C4CC4)n3)c(C#N)c2)n1` and `CCOc1cncc(-c2ccc(NC(=O)C(C)(C)c3ccnc(NS(=O)(=O)C4CC4)n3)c(OC(F)(F)F)c2)n1` cannot be ordered by IC50: no more than 100 nM for the first, no more than 100 nM for the second.

`O=C(Cc1ccnc(NS(=O)(=O)C2CC2)n1)Nc1ccc(-c2ccccc2)cc1` and `O=C(Cc1ccnc(NS(=O)(=O)C2CC2)n1)Nc1ccc(-c2cncc(OCC(F)(F)F)c2)cc1` cannot be ordered by IC50: greater than 1000 nM for the first, greater than 100 nM for the second.

`CCOc1cncc(-c2ccc(NC(=O)C(C)(C)c3ccnc(NS(=O)(=O)C4CC4)n3)c(C)c2C)n1` and `CCOc1cncc(-c2cc(F)c(NC(=O)C(C)(C)c3ccnc(NS(=O)(=O)C4CC4)n3)cc2C)n1` cannot be ordered by IC50: greater than 100 nM for the first, greater than 100 nM for the second.

`Cc1cncc(-c2ccc(NC(=O)C(C)(C)c3ccnc(NS(=O)(=O)C4CC4)n3)cc2)c1` and `CC(C)(C(=O)Nc1ccc(-c2cncc(Cl)c2)cc1)c1ccnc(NS(=O)(=O)C2CC2)n1` cannot be ordered by IC50: greater than 100 nM for the first, greater than 100 nM for the second.

`CCOc1cncc(-c2cc(F)c(NC(=O)C(C)(C)c3ccnc(NS(=O)(=O)C4CC4)n3)c(F)c2)n1` and `CCOc1cncc(-c2cc(OC)c(NC(=O)C(C)(C)c3ccnc(NS(=O)(=O)C4CC4)n3)cc2F)n1` cannot be ordered by IC50: no more than 100 nM for the first, greater than 100 nM for the second.

`Cc1cncc(-c2ccc(NC(=O)C(C)(C)c3ccnc(NS(C)(=O)=O)n3)c(C)c2)n1` and `CC(C)(C(=O)Nc1ccc(-c2cnccn2)cc1F)c1ccnc(NS(=O)(=O)C2CC2)n1` cannot be ordered by IC50: greater than 1000 nM for the first, greater than 1000 nM for the second.

`CC(C)Oc1cncc(-c2ccc(NC(=O)C(C)(C)c3ccnc(NS(=O)(=O)C4CC4)n3)nc2)n1` and `CC(C)(C(=O)Nc1ccc(-c2cncc(OC3CC3)n2)cn1)c1ccnc(NS(=O)(=O)C2CC2)n1` cannot be ordered by IC50: no more than 100 nM for the first, no more than 100 nM for the second.

`CCOc1cncc(-c2ccc(NC(=O)C3(c4ccnc(NS(=O)(=O)C5CC5)n4)CCCC3)cc2)n1` and `CCOc1cncc(-c2ccc(NC(=O)Cc3ccnc(NS(=O)(=O)C4CC4)n3)cc2)n1` cannot be ordered by IC50: no more than 100 nM for the first, no more than 100 nM for the second.

`COc1cncc(-c2ccc(NC(=O)C(C)(C)c3ccnc(NS(=O)(=O)C4CC4)n3)cc2)c1` and `CCOc1cncc(-c2ccc(NC(=O)C(C)(C)c3ccnc(NS(=O)(=O)C4CC4)n3)cc2)c1` cannot be ordered by IC50: greater than 100 nM for the first, greater than 100 nM for the second.

`CC(C)(C(=O)Nc1ccc(-c2cncc(C(F)(F)F)n2)cn1)c1ccnc(NS(=O)(=O)C2CC2)n1` and `CCOc1cncc(-c2ccc(NC(=O)C(C)(C)c3ccnc(NS(=O)(=O)C4CC4)n3)nc2)c1` cannot be ordered by IC50: no more than 100 nM for the first, greater than 100 nM for the second.

`CCC(C(=O)Nc1ccc(-c2cnccn2)cc1F)c1ccnc(NS(=O)(=O)C2CC2)n1` (configuration not stated) and `CC(C)(C(=O)Nc1ccc(-c2cncc(OC(F)F)c2)cc1)c1ccnc(NS(=O)(=O)C2CC2)n1` cannot be ordered by IC50: greater than 100 nM for the first, no more than 100 nM for the second.
